Tested on: Gram-positive bacterial strains
Assay: activity against Gram-positive bacterial strains
Type: cell-based
Details: compound produced by AQP4511 in PDY medium supplemented with 0.5 mM NaNO3
Procedure: A Streptomyces sp. strain AQP4511 produced a red orange compound, which has a naphthoquinone structure, in a PDY medium supplemented with 0.5 mM NaNO3.

COc1cc(O)c2c(c1)C(=O)C1=C(C2=O)C(OC(C)=O)C(O)C(C)O1 (stereo not shown) [Gunacin]
activity against most of Gram-positive bacterial strains: very strong activity
